Measurements taken from paper PMC11783601, “Analogue-Sensitive Inhibition of Histone Demethylases Uncovers Member-Specific Function in Ribosomal Protein Synthesis” (Journal of the American Chemical Society, 2025).
“Also recorded” adds a separate entry of the source.

Tested on: 47S rRNA precursor in HEK293T cells
Assay: Fluorescence in situ hybridization (FISH) of 47S precursor rRNA
Format: cell-based, human
Settings: HEK293T cells expressing F185A
Method: We next examined the mechanistic link between KDM4A-mediated promoter demethylation and rRNA upregulation (Figure 7A). To confirm that KDM4A specifically stimulates rRNA synthesis, we performed fluorescence in situ hybridization (FISH) using a fluoresceine-attached short DNA complementary to the 47S rRNA precursor. Overexpression of wild type KDM4A and its as variant indeed led to increased expression of the precursor rRNA compared to that of the control vector (Figure 7B,C).
(Sigma B2883-25MG) for 30 seconds, washed with PBS and finally adhered to a slide with gelvatol. The cells were imaged at University of Pittsburgh Center for Biological Imaging on an Olympus Fluoview 1000 II, grant number 1S10OD019973-01 using excitation and emission wavelengths corresponding to that of Rhodamine. Images were analyzed on ImageJ open-source software and NIS elements software.
17. Analysis of rRNA expression in HEK293T cells using fluorescence in-situ hybridization HEK293-T cells (ATCC CRL-1573) were grown in a 24 well plate (Corning) on poly-D-lysine (Gibco A3890401) treated glass coverslips (ThermoScientific 12-545-81P) overnight and transfected the next day with 500 ng KDM4A WT/F185A or Empty Vector (EV) equivalent using 1:2 ug of Thermo Turbofect (FERR0531). […] Images were analyzed on ImageJ open-source software and NIS elements software. […]

CC(C)CC(NC(=O)C(=O)OCc1cccc(C(F)(F)F)c1)C(=O)O [6B, L-Leu TFMB-ester NOG]
transcription of the 47S precursor rRNA: significantly reduced; also recorded: decreased expression of pre-rRNA
